Test [1] addresses T1, hRIPK1 (aa 1-375) fusion protein (Homo sapiens, UniProt Q13546).
T1 construct: hRIPK1 (aa 1-375) fusion protein
T1 sequence (Q13546 1-375): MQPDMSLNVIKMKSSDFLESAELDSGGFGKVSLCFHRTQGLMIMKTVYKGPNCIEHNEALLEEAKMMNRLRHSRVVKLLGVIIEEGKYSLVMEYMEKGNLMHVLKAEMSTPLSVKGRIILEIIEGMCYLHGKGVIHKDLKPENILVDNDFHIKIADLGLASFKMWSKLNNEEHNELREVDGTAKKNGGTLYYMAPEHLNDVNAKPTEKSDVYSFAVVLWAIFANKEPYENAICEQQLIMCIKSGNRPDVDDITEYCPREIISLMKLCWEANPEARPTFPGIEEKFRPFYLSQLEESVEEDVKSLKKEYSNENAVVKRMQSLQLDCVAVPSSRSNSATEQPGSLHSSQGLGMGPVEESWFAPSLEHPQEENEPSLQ
In words: ADP-Glo kinase assay: catalytic activity of RIPK1 (autophosphorylation, conversion of ATP to ADP). The test is classed as biochemical. An outline of the steps: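 The readout was ADP-Glo luminescence after a 240 min rt autophosphorylation reaction with 50 μM ATP, following 30 min preincubation of 3.6 μg/ml hRIPK1 (aa 1-375) fusion with compound at 33300-1.69 nM final in 1% DMSO. Values came from Levenberg-Marquardt nonlinear fits.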
In general terms: In ADP-Glo the light output rises with the ADP produced.

Another test concerns U937 cells. The test can be described thus: Cellular assay in U937 cells: activity of RIPK1 inhibitors on TNFα/zVAD.fmk-induced cell death (necroptosis), CellTiter 96 AQueous (MTS) readout. The test is classed as cell-based. Conditions: Homo sapiens, U-937. An outline of the steps:
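Necroptosis was measured by viable-cell MTS reduction (4 h, absorbance 490 nm) after overnight (18–24 h) 37° C culture. Cell suspensions of U937 cells carried TNFα (100 ng/ml) plus zVAD.fmk (50 μM) before compound was added. A 10-point curve (10 μM–0.26 nM or 1 μM–0.07 nM) was run in duplicate, normalised to the control lacking TNFα/zVAD.fmk.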

With `N#Cc1cncc(C[C@H]2CC[C@H](C(=O)N3OCC[C@H]3c3cc(F)cc(C#N)c3)CC2)c1` [compound 141, trans-5-[[4-[(3S)-3-(3-cyano-5-fluoro-phenyl)isoxazolidine-2-carbonyl]cyclohexyl]methyl]pyridine-3-carbonitrile], the IC50 in test [1] amounted to 13 nM; in the test on U937 cells it was 17 nM.

On to `Cc1ncc(C[C@H]2CC[C@H](C(=O)N3OCC[C@H]3c3cnc(C)c(F)c3)CC2)cn1` [compound 343, trans-[(3S)-3-(5-fluoro-6-methylpyridin-3-yl)-1,2-oxazolidin-2-yl]-[4-[(2-methylpyrimidin-5-yl)methyl]cyclohexyl]methanone], for which the half-maximal inhibitory concentration (IC50) in test [1] was found to be 43 nM; in the test with U937 cells, 21 nM.

In the case of `N#Cc1cc(F)cc([C@@H]2CCON2C(=O)[C@H]2CC[C@H](Cn3ccc4c(F)cc(C#N)cc43)CC2)c1` [compound 46, trans-1-((4-((S)-3-(3-cyano-5-fluorophenyl)isoxazolidine-2-carbonyl)cyclohexyl)methyl)-4-fluoro-1H-indole-6-carbonitrile], the IC50 in test [1] was 13 nM; with U937 cells, 6 nM.

As for `Cc1nccn1-c1cc(F)cc(C[C@H]2CC[C@H](C(=O)N3OCC[C@H]3c3cc(F)cc(F)c3)CC2)c1` [compound 208, trans-[(3S)-3-(3,5-difluorophenyl)isoxazolidin-2-yl]-[4-[[3-fluoro-5-(2-methylimidazol-1-yl)phenyl]methyl]cyclohexyl]methanone], the 50% inhibitory concentration (IC50) in test [1] came out at 24 nM; with U937 cells, 12 nM.

In the case of `Cc1cc(C[C@H]2CC[C@H](C(=O)N3OCC[C@H]3c3csc(C)n3)CC2)c(C)cn1` [compound 366, trans-[4-(2,5-Dimethyl-pyridin-4-ylmethyl)-cyclohexyl]-[(S)-3-(2-methyl-thiazol-4-yl)-isoxazolidin-2-yl]-methanone], the results for the IC50 (in test [1]; in the test with U937 cells) were 40 nM and 11 nM, respectively.

With `Cc1cnc([C@@H]2CCON2C(=O)[C@H]2CC[C@H](Cc3cc(C)ncc3C)CC2)cn1` [compound 339, trans-[4-[(2,5-dimethylpyridin-4-yl)methyl]cyclohexyl]-[(3S)-3-(5-methylpyrazin-2-yl)-1,2-oxazolidin-2-yl]methanone], the IC50 in test [1] came to 25 nM; in the test with U937 cells, 16 nM.

For the compound `N#Cc1cc(F)cc([C@@H]2CCON2C(=O)[C@H]2CC[C@H](Cn3ccc4ncc(F)cc43)CC2)c1` [compound 93, trans-3-fluoro-5-((S)-2-(4-((6-fluoro-1H-pyrrolo[3,2-b]pyridin-1-yl)methyl)cyclohexane-1-carbonyl)isoxazolidin-3-yl)benzonitrile], the results for the IC50 (in test [1]; in the test on U937 cells) were 20 nM and 2 nM, respectively.

`Cc1ccc([C@@H]2CCON2C(=O)[C@H]2CC[C@H](Cc3cnn4cc(C)nc4c3)CC2)cn1` [compound 353, trans-[4-[(2-methylimidazo[1,2-b]pyridazin-7-yl)methyl]cyclohexyl]-[(3S)-3-(6-methylpyridin-3-yl)-1,2-oxazolidin-2-yl]methanone]: the results for the IC50 (in test [1]; in the test on U937 cells) were 87 nM and 112 nM, respectively.

As to `NC(=O)c1cc(C[C@H]2CC[C@H](C(=O)N3OCC[C@H]3c3ccc(F)cc3)CC2)ccc1F` [compound 191, trans-2-fluoro-5-[[4-[(3S)-3-(4-fluorophenyl)isoxazolidine-2-carbonyl]cyclohexyl]methyl]benzamide], the IC50 in test [1] came to 10 nM; in the test with U937 cells, 9 nM.

For `Cc1nc([C@@H]2CCON2C(=O)[C@H]2CC[C@H](Cn3ncc4ccc(C(N)=O)cc43)CC2)cs1` [Compound 234, trans-1-[[4-[(3S)-3-(2-methylthiazol-4-yl)isoxazolidine-2-carbonyl]cyclohexyl]methyl]indazole-6-carboxamide], the values for the IC50 (in test [1]; in the test on U937 cells) were 49 nM and 126 nM, respectively.

Consider `Cc1ccc([C@@H]2CCON2C(=O)[C@H]2CC[C@H](Cc3ccn4nc(C)nc4c3)CC2)cn1` [compound 373, trans-[(S)-3-(6-Methyl-pyridin-3-yl)-isoxazolidin-2-yl]-[4-(2-methyl-[1,2,4]triazolo[1,5-a]pyridin-7-ylmethyl)-cyclohexyl]-methanone], for which the IC50 worked out at 110 nM in test [1] and 78 nM in the test with U937 cells.

In the case of `Cc1ccc([C@@H]2CCON2C(=O)[C@H]2CC[C@H](Cc3cc(C)c4nc(C)nn4c3)CC2)cn1` [compound 325, trans-[4-[(2,8-dimethyl-[1,2,4]triazolo[1,5-a]pyridin-6-yl)methyl]cyclohexyl]-[(3S)-3-(6-methyl-3-pyridyl)isoxazolidin-2-yl]methanone], the figures for the half-maximal inhibitory concentration (IC50) (in test [1]; in the test on U937 cells) were 125 nM and 108 nM, respectively.

Consider `COc1cncc([C@@H]2CCON2C(=O)[C@H]2CC[C@H](Cn3ncc4ncc(C#N)cc43)CC2)n1` [compound 186, trans-1-[[4-[(3S)-3-(6-methoxypyrazin-2-yl)isoxazolidine-2-carbonyl]cyclohexyl]methyl]pyrazolo[4,3-b]pyridine-6-carbonitrile], for which the values for the IC50 (in test [1]; with U937 cells) were 23 nM and 39 nM, respectively.

Turning to `Cc1ccc(C[C@H]2CC[C@H](C(=O)N3OCC[C@H]3c3cnccn3)CC2)cc1C(N)=O` [compound 138, trans-2-methyl-5-[[4-[(3S)-3-pyrazin-2-ylisoxazolidine-2-carbonyl]cyclohexyl]methyl]benzamide], the values for the IC50 (in test [1]; in the test on U937 cells) were 18 nM and 25 nM, respectively.

`Cc1ncc(C[C@H]2CC[C@H](C(=O)N3OCC[C@H]3c3cc(F)cc(C#N)c3)CC2)cn1` [compound 263, trans-3-fluoro-5-[(3S)-2-[4-[(2-methylpyrimidin-5-yl)methyl]cyclohexanecarbonyl]isoxazolidin-3-yl]benzonitrile]: the half-inhibitory concentration (IC50) is 41 nM in test [1] and 59 nM with U937 cells.

Take `CNC(=O)c1ccc(F)c(C[C@H]2CC[C@H](C(=O)N3OCC[C@H]3c3cncc(F)c3)CC2)c1` [compound 172, trans-4-fluoro-3-[[4-[(3S)-3-(5-fluoro-3-pyridyl)isoxazolidine-2-carbonyl]cyclohexyl]methyl]-N-methyl-benzamide]: the IC50 was 16 nM in test [1] and 9 nM in the test with U937 cells.

For `O=C([C@H]1CC[C@H](Cn2ncc3cc(F)ccc32)CC1)N1OCC[C@H]1c1cc(F)cc(F)c1` [compound 55, trans-((S)-3-(3,5-difluorophenyl)isoxazolidin-2-yl)(4-((5-fluoro-1H-indazol-1-yl)methyl)cyclohexyl)methanone], the half-inhibitory concentration (IC50) in test [1] amounted to 21 nM; with U937 cells, 3 nM.

In the case of `Cc1ccc([C@@H]2CCON2C(=O)C23CCC(Cc4ccc(C)c(C(N)=O)c4)(CC2)CC3)cn1` [compound 272, 2-methyl-5-[[4-[(3S)-3-(6-methyl-3-pyridyl)isoxazolidine-2-carbonyl]-1-bicyclo[2.2.2]octanyl]methyl]benzamide], the IC50 in test [1] was 29 nM; in the test with U937 cells, 206 nM.

For `Cc1cnc([C@@H]2CCON2C(=O)[C@H]2CC[C@H](Cc3cc(C)c4nc(C)nn4c3)CC2)cn1` [compound 328, trans-[4-[(2,8-dimethyl-[1,2,4]triazolo[1,5-a]pyridin-6-yl)methyl]cyclohexyl]-[(3S)-3-(5-methylpyrazin-2-yl)isoxazolidin-2-yl]methanone; 2,2,2-trifluoroacetic], the half-inhibitory concentration (IC50) in test [1] was found to be 47 nM; with U937 cells it was 82 nM.

Regarding `N#Cc1cc(F)cc([C@@H]2CCON2C(=O)[C@H]2CC[C@H](Cc3cncc(F)c3)CC2)c1` [compound 148, trans-3-fluoro-5-[(3S)-2-[4-[(5-fluoro-3-pyridyl)methyl]cyclohexanecarbonyl]isoxazolidin-3-yl]benzonitrile], the IC50 in test [1] was 18 nM; in the test on U937 cells, 4 nM.

Consider `Cc1cc(C[C@H]2CC[C@H](C(=O)N3OCC[C@H]3c3coc(C)n3)CC2)c(C)cn1` [compound 377, trans-[4-[(2,5-dimethylpyridin-4-yl)methyl]cyclohexyl]-[(3S)-3-(2-methyl-1,3-oxazol-4-yl)-1,2-oxazolidin-2-yl]methanone], for which the half-inhibitory concentration (IC50) in test [1] is 35 nM; in the test with U937 cells, 36 nM.

For `O=c1oc2ccccc2n1C[C@H]1CC[C@H](C(=O)N2OCC[C@H]2c2cc(F)cc(F)c2)CC1` [compound 20, trans-3-((4-((S)-3-(3,5-difluorophenyl)isoxazolidine-2-carbonyl)cyclohexyl)methyl)benzo[d]oxazol-2(3H)-one], the concentration for half-maximal inhibition (IC50) in test [1] stood at 20 nM; in the test on U937 cells, 5 nM.

Regarding `N#Cc1cc(F)cc([C@@H]2CCON2C(=O)[C@H]2CC[C@H](Cn3cnc4cc(C#N)c(F)cc43)CC2)c1` [compound 11, trans-1-((4-((S)-3-(3-cyano-5-fluorophenyl)isoxazolidine-2-carbonyl)cyclohexyl)methyl)-6-fluoro-1H-benzo[d]imidazole-5-carbonitrile], the figures for the 50% inhibitory concentration (IC50) (in test [1]; in the test with U937 cells) were 59 nM and 38 nM, respectively.

With `O=C([C@H]1CC[C@H](Cn2cnc3ccccc32)CC1)N1OCC[C@H]1c1cc(F)cc(F)c1` [compound 8, trans-(4-((1H-benzo[d]imidazol-1-yl)methyl)cyclohexyl)((S)-3-(3,5-difluorophenyl)isoxazolidin-2-yl)methanone], the IC50 in test [1] was determined as 19 nM; in the test on U937 cells, 6 nM.

By IC50 is commonly meant the midpoint of a concentration-inhibition curve. The low end stands for inhibition by little substance, the high end for a need for much substance.

For the origin of these results see patent publication US20260158009A1 (GENZYME CORPORATION, priority 2023, published 2026).
